The results in this text go back to the PolyMetriX glass transition set.

The structures appear in SMILES notation.

In the case of `*C(=O)OCCCSCCCCCCSCCCOC(=O)c1ccc(N2C(=O)c3ccc(*)cc3C2=O)cc1` (repeat unit), the glass transition temperature was determined as 31.00 °C. As for `*C(=O)OCCOC(=O)N1CCN(*)CC1` (repeat unit), the glass transition temperature came out at 60.00 °C.

Compound `*CC#CC#CCOc1ccc(C(=O)OCCN(CCOC(=O)c2ccc(O*)cc2)c2ccc(/N=N/c3ccc([N+](=O)[O-])cc3)cc2)cc1` (repeat unit) returned a glass transition temperature of 100.00 °C. On to `*CCCCOc1ccc(OCCCCc2nnc(-c3ccc(-c4nnc(*)o4)cc3)o2)c(C)c1` (repeat unit), for which the glass transition temperature turned out to be 129.00 °C.

Compound `*CCCOC(=O)C1CCC(C(=O)O*)CC1` (repeat unit) showed a glass transition temperature of -6.00 °C.

In the case of `*CCCOC(=O)c1ccc2cc(C(=O)O*)ccc2c1` (repeat unit), the glass transition temperature worked out at 88.00 °C. `*CCCOc1ccc(-c2ccc(O*)c3ccccc23)c2ccccc12` (repeat unit) displayed a glass transition temperature of 182.00 °C. In turn, `*CCCS(=O)(=O)CCCCS(=O)(=O)CCCOC(=O)O*` (repeat unit) returned a glass transition temperature of 43.00 °C. Turning to `*CCCS(=O)(=O)CCCCS(=O)(=O)CCCOC(=O)c1ccccc1C(=O)O*` (repeat unit), the glass transition temperature was 49.00 °C.

`*CCN(CCOC(=O)c1cccc(C(=O)O*)c1)c1ccccc1` (repeat unit): the glass transition temperature amounted to 60.00 °C.

With `*CCOC(=O)c1ccc(-c2ccc(-c3ccc(C(=O)O*)cc3)cc2)cc1` (repeat unit), the glass transition temperature is 180.00 °C. Compound `*CCOC(=O)c1ccc2ccc(C(=O)O*)cc2c1` (repeat unit) yielded a glass transition temperature of 119.00 °C. The result for `*CCOC(=O)c1cccc(C(=O)O*)c1` (repeat unit) reads 58.00 °C; that for `*CCOCCOC(=O)c1ccc(-c2ccc(C(=O)O*)cc2)cc1` (repeat unit), 50.00 °C; that for `*CCOCCOC(=O)c1ccccc1C(=O)O*` (repeat unit), -50.00 °C. On to `*CCOCCOCCOC(=O)C1CCC(C(=O)O*)CC1` (repeat unit), for which the glass transition temperature is -25.00 °C. The same measure for `*CCOCCOCCOCCOC(=O)c1ccc(-c2ccc(C(=O)O*)cc2)cc1` (repeat unit): 4.00 °C. The result for `*CCOc1ccc(S(=O)(=O)c2ccc(OCCOP(=O)(O*)Oc3ccc(Br)cc3)cc2)cc1` (repeat unit) reads 59.00 °C; that for `*CCOc1ccc(S(=O)(=O)c2ccc(OCCOP(=O)(O*)Oc3ccc([N+](=O)[O-])cc3)cc2)cc1` (repeat unit), 56.00 °C; that for `*OC(=O)OCCOCCOCCOCCOC(=O)OC1COC2C(*)COC12` (repeat unit), 9.50 °C.

`*OCCOC(=O)CCCC(=O)OCCOc1nc(-c2ccc(OC)cc2)nc(*)c1-c1ccc(OC)cc1` (repeat unit) registered a glass transition temperature of 57.00 °C. Take `*OCCOC(=O)CCCCC(=O)OCCOc1nc(-c2ccc(OC)cc2)nc(*)c1-c1ccc(OC)cc1` (repeat unit): the glass transition temperature was found to be 48.00 °C. `*OCCOC(=O)c1cc(/N=N/c2ccc(OCC)cc2)ccc1-c1ccc(/N=N/c2ccc(OCC)cc2)cc1C(=O)OCCOc1nc(-c2ccc(OCCCC)cc2)nc(*)c1-c1ccc(OC)cc1` (repeat unit) gave a glass transition temperature of 126.00 °C. The same measure for `*ON(C(F)(F)F)C(F)(F)C(*)(F)SC(F)(F)F` (repeat unit): -48.00 °C; for `*O[Si](*)(C)CC` (repeat unit): -133.00 °C; for `*O[Si](*)(C)CCC` (repeat unit): -120.00 °C. Compound `*O[Si](*)(C)CCC(F)(F)F` (repeat unit) came in with a glass transition temperature of -69.00 °C. Turning to `*O[Si](*)(C)CCCC` (repeat unit), the glass transition temperature is -115.00 °C. Consider `*O[Si](*)(C)CCCC(=O)OC` (repeat unit), for which the glass transition temperature is -72.00 °C. The same measure for `*O[Si](*)(C)CCCCC1COC(=O)O1` (repeat unit): -23.4 °C; for `*O[Si](*)(C)CCCCCCCCCCC(=O)Oc1ccc(-c2ccc(OC(=O)c3ccc(OCC(C)CC)cc3)cc2)cc1` (repeat unit): 29.20 °C; for `*O[Si](*)(C)CCCCCCCCCCC(=O)Oc1ccc(C(=O)OCCOc2ccc(C(=O)OC3CCC4(C)C(=CCC5C4CCC4(C)C(C(C)CCCC(C)C)CCC54)C3)cc2)cc1` (repeat unit): 25.00 °C. `*O[Si](*)(C)CCCCCCCCCCC(=O)Oc1ccc(C(=O)Oc2ccc(-c3ccc(OC(=O)c4ccc(OCC(C)CC)cc4)cc3)cc2)cc1` (repeat unit) had a glass transition temperature of 74.30 °C. Regarding `*O[Si](*)(C)CCCCCCCCCCC(F)(F)C(F)(F)C(F)(F)C(F)(F)C(F)(F)C(F)(F)C(F)(F)C(F)(F)F` (repeat unit), the glass transition temperature is -78.00 °C. The compound `*O[Si](*)(C)CCCCCCCCCCCOC(=O)c1cc(OC(=O)c2ccc(OCCOCCOCCOCCOCCOCCOCCOCCOC)cc2)ccc1OC(=O)c1ccc(OCCOCCOCCOCCOCCOCCOCCOCCOC)cc1` (repeat unit) gave a glass transition temperature of -56.00 °C. `*O[Si](*)(C)CCCCCCCCCCCOc1ccc(C(=O)OC/C=C(\C)CCC=C(C)C)cc1` (repeat unit) came in with a glass transition temperature of 25.00 °C. The same measure for `*O[Si](*)(C)CCCCCCOc1ccc(C(=O)Oc2ccc(C#N)cc2)cc1` (repeat unit): 8.00 °C; for `*O[Si](C)(C)O[Si](*)(C)c1c(F)c(F)c(F)c(F)c1F` (repeat unit): -65.00 °C; for `*O[Si](C)(C)O[Si](C)(C)O[Si](*)(c1c(F)c(F)c(F)c(F)c1F)c1c(F)c(F)c(F)c(F)c1F` (repeat unit): -42.00 °C. Compound `*O[Si](C)(C)O[Si](C)(C)O[Si](C)(C)O[Si](C)(C)O[Si](C)(C)c1ccc([Si](*)(C)C)cc1` (repeat unit) returned a glass transition temperature of -80.00 °C. Consider `*O[Si](C)(C)O[Si](C)(C)c1c(F)c(F)c(F)c([Si](*)(C)C)c1F` (repeat unit), for which the glass transition temperature was -61.00 °C. The compound `*O[Si](C)(C)O[Si](C)(C)c1ccc([Si](*)(C)C)cc1` (repeat unit) showed a glass transition temperature of -62.50 °C.

`*O[Si](C)(C)c1c(F)c(F)c(F)c([Si](*)(C)C)c1F` (repeat unit) returned a glass transition temperature of -28.50 °C. As for `*O[Si](C)(C)c1cc(OCCOCc2ccccc2)c([Si](*)(C)C)cc1OCCOCc1ccccc1` (repeat unit), the glass transition temperature is 76.00 °C.

`*O[Si](C)(C)c1ccc(-c2ccc([Si](*)(C)C)cc2)cc1` (repeat unit): the glass transition temperature came to 67.00 °C. Compound `*O[Si](C)(C)c1ccc([Si](*)(C)C)c2ccccc12` (repeat unit) showed a glass transition temperature of 60.00 °C. The compound `*Oc1ccc(C(=O)OCCOCCOCCOC(=O)c2ccc(OC(=O)c3ccc(C(*)=O)cc3)cc2)cc1` (repeat unit) displayed a glass transition temperature of 30.00 °C. The same measure for `*Oc1ccc(C(=O)c2ccc(Oc3ccc(C(=O)c4c(C(=O)c5ccc(*)cc5)c(-c5ccc(F)cc5)c(-c5ccc(F)cc5)c(-c5ccc(F)cc5)c4-c4ccc(F)cc4)cc3)cc2)cc1` (repeat unit): 260.00 °C; for `*Oc1ccc(C(=O)c2ccc(Oc3ccc(C(=O)c4ccc(C(=O)c5ccc(*)cc5)cc4)cc3)cc2)cc1` (repeat unit): 169.00 °C; for `*Oc1ccc(C(C)(C)c2ccc(Oc3ccc(C(=O)c4c(C)ccc5c(C(=O)c6ccc(*)cc6)c(C)ccc45)cc3)cc2)cc1` (repeat unit): 222.00 °C. `*Oc1ccc(C(c2ccc(Oc3ccc(C(=O)C(=O)c4ccc(*)cc4)cc3)cc2)(C(F)(F)F)C(F)(F)F)cc1` (repeat unit): the glass transition temperature turned out to be 162.00 °C.

`*c1ccc(-c2ccc(-n3c(-c4ccc(Oc5ccc(C(=O)c6ccc(Oc7ccc(C(=O)c8ccc(Oc9ccc(-c%10nc%11ccccc%11n%10*)cc9)cc8)cc7)cc6)cc5)cc4)nc4ccccc43)cc2)cc1` (repeat unit): the glass transition temperature turned out to be 243.00 °C. The result for `*c1ccc(C(c2ccc(N3C(=O)c4ccc(OCCN(CCOc5ccc6c(c5)C(=O)N(*)C6=O)c5ccc(/C=C/c6ccc([N+](=O)[O-])cc6)cc5)cc4C3=O)cc2)(C(F)(F)F)C(F)(F)F)cc1` (repeat unit) reads 180.70 °C; that for `*c1ccc(Cc2ccc(N3C(=O)c4ccc(OCCN(CCOc5ccc6c(c5)C(=O)N(*)C6=O)c5ccc(/C=C/c6ccc([N+](=O)[O-])cc6)cc5)cc4C3=O)cc2)cc1` (repeat unit), 160.70 °C; that for `*c1ccc(Cc2ccc(N3C(=O)c4ccc([Si](C)(C)O[Si](C)(C)O[Si](C)(C)c5ccc6c(c5)C(=O)N(*)C6=O)cc4C3=O)cc2)cc1` (repeat unit), 220.00 °C.

The compound `*c1ccc(Cc2ccc(N3C(=O)c4ccc([Si](C)(C)O[Si](C)(C)c5ccc6c(c5)C(=O)N(*)C6=O)cc4C3=O)cc2)cc1` (repeat unit) gave a glass transition temperature of 232.00 °C.

The compound `*c1ccc(OCCOc2ccc(/C=C/c3ccc([N+](=O)[O-])cc3)c(OCCOc3ccc(-c4nc5ccc(Oc6ccc7nc(*)c(-c8ccccc8)nc7c6)cc5nc4-c4ccccc4)cc3)c2)cc1` (repeat unit) came in with a glass transition temperature of 187.00 °C. `*c1ccc(Oc2ccc(C(=O)c3ccc(Oc4ccc(-c5nc6ccccc6n5-c5ccc(-n6c(*)nc7ccccc76)cc5)cc4)cc3)cc2)cc1` (repeat unit) showed a glass transition temperature of 242.00 °C. Regarding `*c1ccc(Oc2ccc(N3C(=O)c4ccc([Si](C)(C)O[Si](C)(C)c5ccc6c(c5)C(=O)N(c5ccc(Oc7ccc(-c8nnc(*)o8)cc7)cc5)C6=O)cc4C3=O)cc2)cc1` (repeat unit), the glass transition temperature amounted to 190.50 °C. The same measure for `*c1cccc(Cc2cccc(N3C(=O)c4ccc([Si](C)(C)O[Si](C)(C)O[Si](C)(C)c5ccc6c(c5)C(=O)N(*)C6=O)cc4C3=O)c2)c1` (repeat unit): 208.00 °C.
